Measurements as given in US20230365592A1 (Agios Pharmaceuticals, Inc., priority 2022, published 2023).

Molecular target: T1, human PAH with the R408W mutation (Homo sapiens, UniProt P00439, R408W)
T1 construct: expressed in transfected cells
T1 sequence (P00439 1-452 R408W): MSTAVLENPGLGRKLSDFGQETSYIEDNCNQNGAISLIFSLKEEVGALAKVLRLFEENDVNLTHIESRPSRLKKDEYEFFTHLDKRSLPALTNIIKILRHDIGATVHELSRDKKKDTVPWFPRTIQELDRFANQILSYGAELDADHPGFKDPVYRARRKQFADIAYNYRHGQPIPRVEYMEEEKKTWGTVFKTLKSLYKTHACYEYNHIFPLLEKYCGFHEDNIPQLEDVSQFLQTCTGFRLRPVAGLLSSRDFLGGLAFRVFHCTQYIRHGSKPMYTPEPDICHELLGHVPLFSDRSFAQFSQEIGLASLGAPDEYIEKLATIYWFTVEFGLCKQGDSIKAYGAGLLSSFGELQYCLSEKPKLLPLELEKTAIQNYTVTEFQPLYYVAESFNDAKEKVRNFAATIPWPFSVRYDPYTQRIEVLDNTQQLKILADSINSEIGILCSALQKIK
Experiment: Cell Based Phenylalanine Flux Assay;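 note: after compound treatment, cells received sepiapterin plus isotope-labelled Phenylalanine for 4 hours, then labelled Tyrosine in the medium was quantified, 10-point 2-fold dilution series run in duplicate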
Conditions: A375 cells expressing R408W PAH; 24 hrs with compound, then 20 µM sepiapterin and 800 µM 13C9,15N-Phenylalanine for 4 hours; 13C-Tyrosine by LC-MS; average where tested multiple times; read-out: AC50

Q: `O=C(c1nnc(-c2cc[nH]n2)o1)N1CCc2[nH]cnc2C1c1cc2ccccn2n1` (stereo not shown) was tested. Which AC50 did it give?
A: The AC50 was over 5000 nM.

Q: Which AC50 does the source give for `CC(C)(F)c1nnc(C(=O)N2CCc3[nH]cnc3[C@H]2c2cc3cc(C(F)(F)F)ccn3n2)o1` (single isomer, unassigned) here?
A: The AC50 was 1000 to 5000 nM.

Q: How did the AC50 turn out when `O=C(c1cn[nH]c1Cl)N1CCc2[nH]cnc2C1c1cc2ccccn2n1` (stereo not shown) was run?
A: The AC50 was 1000 to 5000 nM.

Q: `Cn1nc(C2CC2)nc1C(=O)N1CCc2[nH]cnc2C1c1cc2cccc(Cl)n2n1` (stereo not shown) was tested. Which AC50 did it give?
A: The AC50 was 1000 to 5000 nM.

Q: For `CN(C)C(=O)c1nnc(N2CCc3[nH]cnc3C2c2cc3c(C(F)F)cccn3n2)o1` (stereo not shown), which AC50 is on record?
A: Its AC50 is 1000 to 5000 nM.

Q: `Cn1cc(-c2nnc(N3CCc4[nH]cnc4C3c3cc4ccccn4n3)o2)cn1` (stereo not shown) was tested. Which AC50 did it give?
A: Its AC50 is 1000 to 5000 nM.

Q: Which AC50 does the source give for `O=C(c1cnn2cc(N3CCOCC3)ccc12)N1CCc2[nH]cnc2C1c1cc2c(F)cccn2n1` (stereo not shown) here?
A: The AC50 was 1000 to 5000 nM.

Q: For `Cn1cc(N2CCc3[nH]cnc3[C@H]2c2cc3ccccn3n2)cn1` (single isomer, unassigned), which AC50 is on record?
A: Its AC50 is over 5000 nM.

Q: With `CC(O)c1nnc(C(=O)N2CCc3[nH]cnc3C2c2cc3ccccn3n2)o1` (stereo not shown) as the compound, how does the AC50 read?
A: Its AC50 is 1000 to 5000 nM.

Q: Which AC50 does the source give for `Cn1nc(C(C)(C)C)cc1C(=O)N1CCc2[nH]cnc2C1c1cc2ccccn2n1` (stereo not shown) here?
A: The AC50 was 1000 to 5000 nM.

Q: Which AC50 does the source give for `Cc1cccn2nc(C3c4nc[nH]c4CCN3c3cnn(C)c3)cc12` (stereo not shown) here?
A: The AC50 was 1000 to 5000 nM.

Q: How did the AC50 turn out when `CC(C)c1nnc(N2CCc3[nH]cnc3C2c2cc3c(C(C)C)cccn3n2)o1` (stereo not shown) was run?
A: Its AC50 is over 5000 nM.

Q: For `COCCc1ccc2c(C(=O)N3CCc4[nH]cnc4C3c3cc4ccccn4n3)cnn2c1` (stereo not shown), which AC50 is on record?
A: Its AC50 is over 5000 nM.

Same assay, conditions: A375 cells expressing human PAH R408W; 24 hrs compound incubation; 13C-Tyrosine by LC-MS; average where tested multiple times; read-out: AC50

Q: For `CC(C)(F)c1ncc(C(=O)N2CCc3[nH]cnc3[C@H]2c2cc3ccccn3n2)o1` [Example 1957, (S)-(2-(2-fluoropropan-2-yl)oxazol-5-yl)(4-(pyrazolo[1,5-a]pyridin-2-yl)-1,4,6,7-tetrahydro-5H-imidazo[4,5-c]pyridin-5-yl)methanone], which AC50 is on record?
A: Its AC50 is 500 to 1000 nM.

Q: `CC(C)(C)c1nnc(N2CCc3[nH]cnc3[C@H]2c2cc3c(C(F)F)cccn3n2)o1` [Example 1825, (S)-2-(tert-butyl)-5-(4-(4-(difluoromethyl)pyrazolo[1,5-a]pyridin-2-yl)-6,7-dihydro-1H-imidazo[4,5-c]pyridin-5(4H)-yl)-1,3,4-oxadiazole] was tested. Which AC50 did it give?
A: The AC50 was 500 to 1000 nM.

Q: For `O=C(c1nnc(-c2ccn(C(F)F)n2)o1)N1CCc2[nH]cnc2[C@@H]1c1cc2c(C3CC3)cccn2n1` [Example 1931, (R)-(4-(4-cyclopropylpyrazolo[1,5-a]pyridin-2-yl)-1,4,6,7-tetrahydro-5H-imidazo[4,5-c]pyridin-5-yl)(5-(1-(difluoromethyl)-1H-pyrazol-3-yl)-1,3,4-oxadiazol-2-yl)methanone], which AC50 is on record?
A: The AC50 was over 5000 nM.

Q: Which AC50 does the source give for `Cc1nnc(C(=O)N2CCc3[nH]cnc3[C@H]2c2cc3c(C)cccn3n2)s1` [Example 2501, (S)-(5-methyl-1,3,4-thiadiazol-2-yl)(4-(4-methylpyrazolo[1,5-a]pyridin-2-yl)-1,4,6,7-tetrahydro-5H-imidazo[4,5-c]pyridin-5-yl)methanone] here?
A: The AC50 was 1000 to 5000 nM.

Q: Which AC50 does the source give for `Cn1cc(-c2nnc(C(=O)N3CCc4[nH]cnc4[C@@H]3c3cc4ccc(C(F)(F)F)cn4n3)o2)cn1` [Example 2417, (R)-(5-(1-methyl-1H-pyrazol-4-yl)-1,3,4-oxadiazol-2-yl)(4-(6-(trifluoromethyl)pyrazolo[1,5-a]pyridin-2-yl)-6,7-dihydro-1H-imidazo[4,5-c]pyridin-5(4H)-yl)methanone] here?
A: The AC50 was 1000 to 5000 nM.

Q: How did the AC50 turn out when `Cc1cccnc1-c1nnc(N2CCc3[nH]cnc3[C@@H]2c2cc3c(C4CC4)cccn3n2)o1` [Example 2282, (R)-2-(4-(4-cyclopropylpyrazolo[1,5-a]pyridin-2-yl)-1,4,6,7-tetrahydro-5H-imidazo[4,5-c]pyridin-5-yl)-5-(3-methylpyridin-2-yl)-1,3,4-oxadiazole] was run?
A: Its AC50 is over 5000 nM.

Q: How did the AC50 turn out when `O=C(c1ocnc1C1CC1)N1CCc2[nH]cnc2[C@H]1c1cc2c(C(F)(F)F)cccn2n1` [Example 2014, (S)-(4-cyclopropyloxazol-5-yl)(4-(4-(trifluoromethyl)pyrazolo[1,5-a]pyridin-2-yl)-1,4,6,7-tetrahydro-5H-imidazo[4,5-c]pyridin-5-yl)methanone] was run?
A: The AC50 was under 500 nM.

Same assay, conditions: A375 cells expressing human R408W PAH; 24 hrs compound incubation; 13C-Tyrosine by LC-MS; average where tested multiple times; read-out: AC50

Q: How did the AC50 turn out when `O=C(c1nnc(-c2ccc(C(F)(F)F)cn2)o1)N1CCc2[nH]cnc2[C@H]1c1cc2c(F)cccn2n1` [Example 879, (S)-(4-(4-fluoropyrazolo[1,5-a]pyridin-2-yl)-6,7-dihydro-1H-imidazo[4,5-c]pyridin-5(4H)-yl)(5-(5-(trifluoromethyl)pyridin-2-yl)-1,3,4-oxadiazol-2-yl)methanone] was run?
A: Its AC50 is under 500 nM.

Q: With `Cc1cc(C(=O)N2CCc3[nH]cnc3[C@H]2c2cc3ccccn3n2)n(C)n1` [Example 892, (S)-(1,3-dimethyl-1H-pyrazol-5-yl)(4-(pyrazolo[1,5-a]pyridin-2-yl)-6,7-dihydro-1H-imidazo[4,5-c]pyridin-5(4H)-yl)methanone] as the compound, how does the AC50 read?
A: Its AC50 is under 500 nM.

Q: Which AC50 does the source give for `O=C(c1nnc(-c2cccnc2)o1)N1CCc2[nH]cnc2[C@H]1c1cc2cccc(F)n2n1` [Example 1522, (S)-(4-(7-fluoropyrazolo[1,5-a]pyridin-2-yl)-6,7-dihydro-1H-imidazo[4,5-c]pyridin-5(4H)-yl)(5-(pyridin-3-yl)-1,3,4-oxadiazol-2-yl)methanone] here?
A: The AC50 was under 500 nM.

Q: How did the AC50 turn out when `Cc1ncccc1-c1nnc(C(=O)N2CCc3[nH]cnc3[C@@H]2c2cc3cccc(Cl)n3n2)o1` [Example 1335, (R)-(4-(7-chloropyrazolo[1,5-a]pyridin-2-yl)-6,7-dihydro-1H-imidazo[4,5-c]pyridin-5(4H)-yl)(5-(2-methylpyridin-3-yl)-1,3,4-oxadiazol-2-yl)methanone] was run?
A: The AC50 was over 5000 nM.

Q: How did the AC50 turn out when `Cn1ncnc1C(=O)N1CCc2[nH]cnc2[C@@H]1c1cc2c(Cl)cccn2n1` [Example 1051, (R)-(4-(4-chloropyrazolo[1,5-a]pyridin-2-yl)-6,7-dihydro-1H-imidazo[4,5-c]pyridin-5(4H)-yl)(1-methyl-1H-1,2,4-triazol-5-yl)methanone] was run?
A: Its AC50 is over 5000 nM.

Q: For `Cn1nc(C(F)F)cc1C(=O)N1CCc2[nH]cnc2[C@H]1c1cc2cccc(Cl)n2n1` [Example 1384, (S)-(4-(7-chloropyrazolo[1,5-a]pyridin-2-yl)-6,7-dihydro-1H-imidazo[4,5-c]pyridin-5(4H)-yl)(3-(difluoromethyl)-1-methyl-1H-pyrazol-5-yl)methanone], which AC50 is on record?
A: Its AC50 is under 500 nM.

Q: With `O=C(c1nnc(-c2cccnc2)o1)N1CCc2[nH]cnc2[C@@H]1c1cc2cccc(F)n2n1` [Example 1523, (R)-(4-(7-fluoropyrazolo[1,5-a]pyridin-2-yl)-6,7-dihydro-1H-imidazo[4,5-c]pyridin-5(4H)-yl)(5-(pyridin-3-yl)-1,3,4-oxadiazol-2-yl)methanone] as the compound, how does the AC50 read?
A: Its AC50 is over 5000 nM.

Q: With `O=C(c1nnc(-c2cnn(C(F)F)c2)o1)N1CCc2[nH]cnc2[C@H]1c1cc2cccc(Cl)n2n1` [Example 1120, (S)-(4-(7-chloropyrazolo[1,5-a]pyridin-2-yl)-6,7-dihydro-1H-imidazo[4,5-c]pyridin-5(4H)-yl)(5-(1-(difluoromethyl)-1H-pyrazol-4-yl)-1,3,4-oxadiazol-2-yl)methanone] as the compound, how does the AC50 read?
A: The AC50 was under 500 nM.

Q: Which AC50 does the source give for `Cc1ncccc1-c1nnc(C(=O)N2CCc3[nH]cnc3[C@H]2c2cc3c(C(F)(F)F)cccn3n2)o1` [Example 1304, (S)-(5-(2-methylpyridin-3-yl)-1,3,4-oxadiazol-2-yl)(4-(4-(trifluoromethyl)pyrazolo[1,5-a]pyridin-2-yl)-6,7-dihydro-1H-imidazo[4,5-c]pyridin-5(4H)-yl)methanone] here?
A: Its AC50 is under 500 nM.

Q: How did the AC50 turn out when `CC(C)(C#N)c1nc(C(F)F)c(C(=O)N2CCc3[nH]cnc3[C@H]2c2cc3ccccn3n2)o1` [Example 699, (S)-2-(4-(difluoromethyl)-5-(4-(pyrazolo[1,5-a]pyridin-2-yl)-4,5,6,7-tetrahydro-1H-imidazo[4,5-c]pyridine-5-carbonyl)oxazol-2-yl)-2-methylpropanenitrile] was run?
A: Its AC50 is under 500 nM.

Q: Which AC50 does the source give for `O=C(N1CCc2[nH]cnc2[C@@H]1c1cc2ccccn2n1)C(F)(F)C1(O)CCC1` [Example 639, (R)-2,2-difluoro-2-(1-hydroxycyclobutyl)-1-(4-(pyrazolo[1,5-a]pyridin-2-yl)-6,7-dihydro-1H-imidazo[4,5-c]pyridin-5(4H)-yl)ethanone] here?
A: Its AC50 is 1000 to 5000 nM.

Q: How did the AC50 turn out when `CC(C)(F)c1nc(C(F)F)c(C(=O)N2CCc3[nH]cnc3[C@@H]2c2cc3cccc(Cl)n3n2)o1` [Example 1233, (R)-(4-(7-chloropyrazolo[1,5-a]pyridin-2-yl)-6,7-dihydro-1H-imidazo[4,5-c]pyridin-5(4H)-yl)(4-(difluoromethyl)-2-(2-fluoropropan-2-yl)oxazol-5-yl)methanone] was run?
A: The AC50 was 1000 to 5000 nM.

Q: `Cc1c(-c2nnc(C(=O)N3CCc4[nH]cnc4[C@H]3c3cc4c(C(F)F)cccn4n3)o2)cnn1C` [Example 1348, (S)-(4-(4-(difluoromethyl)pyrazolo[1,5-a]pyridin-2-yl)-6,7-dihydro-1H-imidazo[4,5-c]pyridin-5(4H)-yl)(5-(1,5-dimethyl-1H-pyrazol-4-yl)-1,3,4-oxadiazol-2-yl)methanone] was tested. Which AC50 did it give?
A: The AC50 was under 500 nM.

Q: Which AC50 does the source give for `N#Cc1ncoc1C(=O)N1CCc2[nH]cnc2[C@H]1c1cc2ccc(Cl)cn2n1` [Example 684, (S)-5-(4-(6-chloropyrazolo[1,5-a]pyridin-2-yl)-4,5,6,7-tetrahydro-1H-imidazo[4,5-c]pyridine-5-carbonyl)oxazole-4-carbonitrile] here?
A: Its AC50 is 500 to 1000 nM.
